We go through 1 molecule from patent publication US10695562B2, “Interventional drug delivery system and associated methods” (The University of North Carolina at Chapel Hill, priority 2009, dated 2020).

Data set [1] in a line: Gemcitabine transport in orthotopic xenograft tumors, transport testing system, HPLC. To be noted: constant current 20 mA, 20 minutes, tumors 1.25 to 1.5 cm. It counts as in vitro ADME. As for the experimental part: To assess and optimize the electrical transport parameters in tissue, a transport testing system was built (see FIG. 32A). The transport of gemcitabine, the current standard-of-care therapy for pancreatic cancer, was evaluated in orthotopic xenograft tumors using this transport testing system (see FIG. 32B). The tumors chosen for the studies were 1.25 to 1.5 cm in diameter because of compatibility with the size of the transport cell. The gemcitabine was used according to the current clinical formulation (Gemzar® to Eli Lilly and Company), at a concentration relevant to that administered in the clinic. For three tumors, a constant current of 20 mA was applied for 20 minutes, and the amount of gemcitabine was evaluated using a high-performance liquid chromatography (HPLC) analysis method. For three additional tumors, no current was applied, which allowed for passive diffusion of the gemcitabine into the tumor, and the amount of gemcitabine was evaluated using the same HPLC analysis method.

Data set [2] in a line: Plasma concentrations of gemcitabine, implantable device on canine pancreas, UV-HPLC. The class given is in vivo. Further details: key to Gem Concentration (plasma): *: Below limit of detection. As for the experimental part: The reservoir based system similar to that shown in FIGS. 33A-D was surgically implanted onto the pancreas of a canine. All animal models were anesthetized and attached to a respirator for the entirety of the study. The implantable device approach was assessed via a laparotomy. The pancreas was assessed for ease of access.
There were three arms for the large animal experiment: 1. Device with current; 2. Device without current; and 3. IV Infusion (see Table 2). The device was sutured onto the right lobe of the canine pancreas. Gemcitabine formulated at clinically relevant concentrations was pumped into and out of the device at ˜1.5 mL/min during the application of 10 mA of current applied for 60 minutes. Control experiments were run without current. After administration of therapy, the pancreas was excised and snap frozen for analysis. The gemcitabine was measured from the section tissue using UV-HPLC from established protocols in the literature (see Olive, K P, et al. Science 324 (2009) 1457-1461 and Kirstein M N, et al., J Chromatogr B Analyt Technol Biomed Life Sci. 835 (2006) 136-142). Shown in FIG. 34 are the results obtained from the three experimental arms analyzing the mass of gemcitabine from the entire pancreas.
In FIG. 35, the transport distance of the gemcitabine is shown for the with and without current arms. […] Plasma concentrations of gemcitabine were detected at 15-minute increments prior to and during the large animal study. The tissue was sectioned using a cryostat microtome and gemcitabine was extracted using an established extraction method (see Olive et al.). The gemcitabine was detected and quantified using UV-HPLC (see Olive et al. and Kirstein et al.).

On to `Nc1ccn([C@@H]2O[C@H](CO)[C@@H](O)C2(F)F)c(=O)n1` [Gemcitabine, gemcitabine], for which the “increase in the amount of gemcitabine within tumor compared to the control (no current applied)” value in data set [1] was “eight-fold increase”. The “Gem Concentration (plasma)” value in data set [2] (Device - Current Applied (10 mA), sample 0 min) is “*”; in data set [2] (Device - Current Applied (10 mA), sample 15 min), “*”; in data set [2] (Device - Current Applied (10 mA), sample 30 min) it was “*”; in data set [2] (Device - Current Applied (10 mA), sample 45 min), “*”; in data set [2] (Device - Current Applied (10 mA), sample 60 min), “*”; in data set [2] (Device - Current Applied (10 mA), sample −15 min), “*”. For the same molecule, the “Gem Concentration (plasma)” value in data set [2] (Device - No Current, sample 0 min) is “*”; in data set [2] (Device - No Current, sample 15 min), “*”; in data set [2] (Device - No Current, sample 30 min), “*”; in data set [2] (Device - No Current, sample 45 min), “*”; in data set [2] (Device - No Current, sample 60 min) it was “*”; in data set [2] (Device - No Current, sample −15 min) it was “*”. In data set [2] (with and without current arms, device on pancreas), the “gemcitabine levels detected in the plasma of the dogs” value is “below the detectable limit”.
